Literature values as cited in publication PMC9298070, “Lack of a Clinically Meaningful Drug Interaction Between the HIV‐1 Antiretroviral Agents Islatravir, Dolutegravir, and Tenofovir Disoproxil Fumarate” (Clinical Pharmacology in Drug Development, 2021).

Test system: CYP3A4
Parameters: method as in PMID 34452431
Settings: up to 200 μM; cited from earlier work

For C#C[C@]1(CO)O[C@@H](n2cnc3c(N)nc(F)nc32)C[C@@H]1O [Islatravir, 4′‐Ethynyl‐2‐fluoro‐2′‐deoxyadenosine], the “inhibitory effect on CYP3A4” value is given as “no inhibitory effect”.
